From US20220193062A1 (DENOVO BIOPHARMA LLC, priority 2018, published 2022)
Where two headings read alike, the source gives them in different places. Each block holds one molecule with its values, some of them ahead of it.

Key:
[1] = system: Bmx, CSK, FGR, BRK, and HCK; conditions: cited from earlier work
[2] = system: EGFR, Yes, ErbB2, and JAK3; conditions: cited from earlier work
[3] = biological target: T1, bone marrow tyrosine kinase on chromosome X (BMX) (Homo sapiens, UniProt P51813); conditions: targets Cys496 in the BMX ATP binding domain; cited from earlier work
T1 sequence (P51813 1-675): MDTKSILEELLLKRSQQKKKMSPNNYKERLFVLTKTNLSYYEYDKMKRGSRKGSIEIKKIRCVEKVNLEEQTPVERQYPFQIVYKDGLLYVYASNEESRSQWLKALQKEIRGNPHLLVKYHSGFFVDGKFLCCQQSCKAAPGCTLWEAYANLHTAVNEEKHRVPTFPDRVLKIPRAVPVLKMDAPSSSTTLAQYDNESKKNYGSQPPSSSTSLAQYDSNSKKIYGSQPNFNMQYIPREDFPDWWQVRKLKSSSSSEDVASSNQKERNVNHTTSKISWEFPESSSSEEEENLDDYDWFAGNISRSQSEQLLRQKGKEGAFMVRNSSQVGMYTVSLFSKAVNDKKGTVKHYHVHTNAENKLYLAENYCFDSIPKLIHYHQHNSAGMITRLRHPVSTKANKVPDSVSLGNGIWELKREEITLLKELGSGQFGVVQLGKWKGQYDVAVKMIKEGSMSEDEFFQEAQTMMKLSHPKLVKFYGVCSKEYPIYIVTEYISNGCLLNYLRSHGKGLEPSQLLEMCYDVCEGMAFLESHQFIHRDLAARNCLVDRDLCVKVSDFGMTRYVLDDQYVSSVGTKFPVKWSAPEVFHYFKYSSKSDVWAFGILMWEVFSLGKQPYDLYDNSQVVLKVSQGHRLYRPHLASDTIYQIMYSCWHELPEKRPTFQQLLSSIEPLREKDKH

[4] = biological target: BTK (Rattus norvegicus, UniProt Q5S255); conditions: read-out: in vivo IC50; rats; cited from earlier work
[5] = biological target: Plx1 (Xenopus laevis, UniProt P70032); conditions: cited from earlier work
[6] = biological target: PLK3 (Homo sapiens, UniProt Q9H4B4); conditions: cited from earlier work
[7] = biological target: BTK (Homo sapiens, UniProt Q06187); conditions: cited from earlier work
[8] = biological target: T2, interleukin-2-inducible T-cell kinase (ITK) (Homo sapiens, UniProt Q08881); conditions: cited from earlier work
T2 sequence (Q08881 1-620): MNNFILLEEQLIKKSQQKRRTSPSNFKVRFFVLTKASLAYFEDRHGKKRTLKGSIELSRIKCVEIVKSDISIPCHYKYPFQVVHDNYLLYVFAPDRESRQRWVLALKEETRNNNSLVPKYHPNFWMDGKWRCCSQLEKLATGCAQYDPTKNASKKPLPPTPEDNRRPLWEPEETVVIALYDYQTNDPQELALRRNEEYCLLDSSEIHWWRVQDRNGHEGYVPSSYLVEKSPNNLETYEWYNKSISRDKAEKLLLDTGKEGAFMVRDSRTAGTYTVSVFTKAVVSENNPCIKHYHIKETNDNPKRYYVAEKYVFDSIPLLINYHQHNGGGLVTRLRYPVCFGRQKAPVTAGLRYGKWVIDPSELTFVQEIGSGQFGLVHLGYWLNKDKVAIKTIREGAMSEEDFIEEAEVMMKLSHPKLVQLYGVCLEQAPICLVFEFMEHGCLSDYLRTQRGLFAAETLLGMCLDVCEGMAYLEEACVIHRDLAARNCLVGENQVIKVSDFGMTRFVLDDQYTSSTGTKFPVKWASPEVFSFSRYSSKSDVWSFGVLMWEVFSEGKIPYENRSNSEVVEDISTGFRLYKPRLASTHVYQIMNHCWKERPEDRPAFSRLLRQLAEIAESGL

[9] = system: ABC and GCB types of DLBCL cell lines; test: Cell Titer-Glo cell viability, enzastaurin alone, 9 DLBCL cell lines; format: cell-based; conditions: 72 h; read-out: 50% inhibitory concentration (IC50) of cell proliferation
[10] = system: p-BTK in HBL-1 and TMD8 cells; test: Western blot of p-BTK after enzastaurin; format: cell-based; conditions: 2 hours treatment
[11] = system: HBL-1 cells; test: Apoptosis assay, annexin V flow cytometry; format: cell-based; conditions: HBL-1, 48 h
[12] = system: PARP, XIAP, MCL-1, caspase-3, Bcl-2 in HBL-1 cells; test: Western blot of proteins associated with apoptosis; format: cell-based; conditions: HBL-1, 48 hours
[13] = system: HBL-1 cells; test: Transwell invasion assay (Matrigel); format: cell-based; conditions: HBL-1, 2 micromolar enzastaurin and/or 0.02 micromolar ibrutinib
[14] = system: HBL-1 cells; test: Transwell migration assay; format: cell-based; conditions: HBL-1, 2 micromolar enzastaurin and/or 0.02 micromolar ibrutinib
[15] = system: signals downstream of BCR in HBL-1, TMD-8, and SU-DHL-6 cells; test: Western blot of downstream BCR signalling; format: cell-based
[16] = system: HBL-1 cells; test: Whole-transcriptome RNA-seq; format: cell-based; conditions: HBL-1, 24 hours
[17] = system: ABC-DLBCL HBL-1 cells engrafted in NPG mice; test: HBL-1 lymphoma xenograft model; format: in vivo; conditions: for tumour weight: end of the experiment (day 39), vehicle 1321.50±168.84 mg; for reduction of tumor volume: enzastaurin 50 mg/kg BID oral, ibrutinib 12 mg/kg QD oral, 21 days
[18] = system: SU-DHL-5; test: Cell proliferation assay (Cell Titer AQueous One Solution), Example 2; format: cell-based; conditions: Homo sapiens; SU-DHL-5, 72 h, 0.014 μM-10 μM
[19] = system: SU-DHL-6; test: as above; format: cell-based; conditions: Homo sapiens; SU-DHL-6, 72 h, 0.014 μM-10 μM
[20] = system: DLBCL patients; conditions: Phase I/II studies, cited from earlier work
[21] = system: high-risk DLBCL patients; conditions: enzastaurin alone, after remission of B cell lymphoma; cited from earlier work
[22] = system: DLBCL patients; conditions: DLBCL trials of enzastaurin; cited from earlier work
[23] = system: relapsed DLBCL patients; conditions: cited from earlier work

Chain of BTK (Homo sapiens, UniProt Q06187) (Q06187 whole entry, species assumed): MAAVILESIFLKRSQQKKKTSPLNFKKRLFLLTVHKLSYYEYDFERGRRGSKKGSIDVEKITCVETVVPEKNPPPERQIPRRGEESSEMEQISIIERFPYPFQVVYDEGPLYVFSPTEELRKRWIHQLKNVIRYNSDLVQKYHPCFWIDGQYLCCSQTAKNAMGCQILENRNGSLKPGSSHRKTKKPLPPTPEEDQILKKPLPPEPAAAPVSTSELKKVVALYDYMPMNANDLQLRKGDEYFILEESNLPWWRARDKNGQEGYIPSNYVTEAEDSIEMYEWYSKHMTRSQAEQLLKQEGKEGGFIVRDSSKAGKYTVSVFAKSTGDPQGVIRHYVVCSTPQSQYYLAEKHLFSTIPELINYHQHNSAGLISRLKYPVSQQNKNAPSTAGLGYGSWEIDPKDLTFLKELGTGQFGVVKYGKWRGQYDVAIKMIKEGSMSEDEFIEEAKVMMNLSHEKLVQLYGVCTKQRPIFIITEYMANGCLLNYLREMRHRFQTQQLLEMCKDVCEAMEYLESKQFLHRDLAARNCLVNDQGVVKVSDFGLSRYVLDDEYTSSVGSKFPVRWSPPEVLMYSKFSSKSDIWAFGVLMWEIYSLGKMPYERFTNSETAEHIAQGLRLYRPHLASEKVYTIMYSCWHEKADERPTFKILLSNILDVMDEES
Chain of BTK (Rattus norvegicus, UniProt Q5S255) (Q5S255 1-660): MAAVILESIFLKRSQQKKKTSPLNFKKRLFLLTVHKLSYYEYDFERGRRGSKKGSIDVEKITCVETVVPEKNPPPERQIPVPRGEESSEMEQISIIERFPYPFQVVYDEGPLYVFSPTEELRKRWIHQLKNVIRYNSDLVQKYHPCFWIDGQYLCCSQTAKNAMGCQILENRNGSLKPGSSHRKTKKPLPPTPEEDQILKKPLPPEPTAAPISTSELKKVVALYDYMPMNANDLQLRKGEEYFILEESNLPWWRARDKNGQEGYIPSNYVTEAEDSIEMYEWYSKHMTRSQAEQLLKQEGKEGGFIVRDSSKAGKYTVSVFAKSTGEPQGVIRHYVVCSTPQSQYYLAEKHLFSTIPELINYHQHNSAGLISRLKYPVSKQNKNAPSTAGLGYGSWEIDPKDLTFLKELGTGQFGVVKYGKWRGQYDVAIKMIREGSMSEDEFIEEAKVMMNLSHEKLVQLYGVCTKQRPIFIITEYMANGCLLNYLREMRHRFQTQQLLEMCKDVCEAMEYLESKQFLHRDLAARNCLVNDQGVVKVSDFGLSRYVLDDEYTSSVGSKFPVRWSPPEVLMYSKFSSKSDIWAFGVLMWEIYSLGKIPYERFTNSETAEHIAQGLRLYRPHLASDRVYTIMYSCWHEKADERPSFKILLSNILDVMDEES
Chain of PLK3 (Q9H4B4 whole entry, species assumed): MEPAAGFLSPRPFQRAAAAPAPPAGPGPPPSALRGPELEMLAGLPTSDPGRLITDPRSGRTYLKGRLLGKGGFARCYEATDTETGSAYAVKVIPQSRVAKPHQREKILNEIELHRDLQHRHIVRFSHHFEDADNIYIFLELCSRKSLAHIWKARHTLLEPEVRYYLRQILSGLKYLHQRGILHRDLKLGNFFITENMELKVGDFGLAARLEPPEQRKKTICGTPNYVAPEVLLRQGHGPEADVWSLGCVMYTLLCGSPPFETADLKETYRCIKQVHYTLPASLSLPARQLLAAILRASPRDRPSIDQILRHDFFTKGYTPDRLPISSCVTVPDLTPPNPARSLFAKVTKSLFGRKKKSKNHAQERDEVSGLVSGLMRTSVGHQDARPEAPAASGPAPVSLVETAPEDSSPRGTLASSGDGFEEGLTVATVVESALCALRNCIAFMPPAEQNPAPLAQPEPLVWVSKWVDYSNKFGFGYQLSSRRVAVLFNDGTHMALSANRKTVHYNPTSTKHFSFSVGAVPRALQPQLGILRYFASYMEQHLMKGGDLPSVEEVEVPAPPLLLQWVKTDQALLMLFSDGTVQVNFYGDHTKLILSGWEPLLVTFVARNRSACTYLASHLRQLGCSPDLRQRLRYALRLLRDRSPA
Chain of Plx1 (P70032 whole entry): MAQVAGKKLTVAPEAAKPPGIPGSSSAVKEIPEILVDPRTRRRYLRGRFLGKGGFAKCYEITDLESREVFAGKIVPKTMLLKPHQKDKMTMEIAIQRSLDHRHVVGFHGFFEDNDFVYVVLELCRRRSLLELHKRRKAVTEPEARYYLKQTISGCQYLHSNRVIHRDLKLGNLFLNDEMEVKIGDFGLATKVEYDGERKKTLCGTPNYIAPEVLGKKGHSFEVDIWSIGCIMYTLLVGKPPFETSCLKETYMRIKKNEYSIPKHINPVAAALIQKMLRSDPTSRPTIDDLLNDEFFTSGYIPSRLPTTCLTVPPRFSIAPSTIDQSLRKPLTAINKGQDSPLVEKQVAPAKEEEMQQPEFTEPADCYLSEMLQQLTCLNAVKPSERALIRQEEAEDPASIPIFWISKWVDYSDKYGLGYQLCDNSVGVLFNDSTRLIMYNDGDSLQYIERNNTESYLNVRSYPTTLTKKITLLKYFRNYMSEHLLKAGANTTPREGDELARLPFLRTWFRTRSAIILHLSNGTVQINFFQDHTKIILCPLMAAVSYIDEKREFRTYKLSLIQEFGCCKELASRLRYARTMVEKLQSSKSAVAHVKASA

Structure (SMILES): C=CC(=O)N1CCC[C@@H](n2nc(-c3ccc(Oc4ccccc4)cc3)c3c(N)ncnc32)C1 (racemic) [PCI-32765]
inhibition of Bmx, CSK, FGR, BRK, and HCK [1]: moderate inhibition
activity on EGFR, Yes, ErbB2, and JAK3 [2]: lower activity

Structure (SMILES): C=CC(=O)Nc1cc(-n2c(=O)ccc3cnc4ccc(-c5ccc(NS(C)(=O)=O)cc5)cc4c32)ccc1C [BMX-IN-1]
IC50 [3]: 0.008 µM

Structure (SMILES): Cc1c(NC(=O)c2cc3c(s2)CCCC3)cccc1-c1cn(C)c(=O)c(Nc2ccc([C@@H]3C(=O)N(C)CCN3C)cc2)n1 [GDC-0834]
IC50 [4]: 5.6 µM

Structure (SMILES): C/C(O)=C(\C#N)C(=O)Nc1cc(Br)ccc1Br [LFM-A13]
IC50 [5]: 10 µM
IC50 [6]: 61 µM

Structure (SMILES): NC(=O)[C@H]1CCN(c2ncnc(N)c2F)C[C@@H]1N1CCC[C@@H](Nc2cc(Cl)cc(C(F)(F)F)c2)C1=O [SNS-062]
Kd [7]: 0.0003 µM
Kd [8]: 0.0022 µM

IC50 [18]: 3.6 µM
IC50 [19]: 5.9 µM
Structure (SMILES): Cn1cc(C2=C(c3cn(C4CCN(Cc5ccccn5)CC4)c4ccccc34)C(=O)NC2=O)c2ccccc21 [enzastaurin]
IC50 [9]: 6.7 to 16 µM
p-BTK level [10]: significant upregulation
apoptosis as measured by annexin V staining ([11]; enzastaurin alone (concentration in FIG. 3a)): 25.5±5.4%
cleavage of PARP and caspase-3 [12]: increase the cleavage of PARP and caspase-3 slightly
invasive abilities [13]: 97.0 % of control
migration abilities [14]: 79.0 % of control
phosphorylation of glycogen synthase kinase 3β (GSK3β) ([15]; low doses, 60 min and 120 min): clearly reduced
p-BTK, p-ERK and p-AKT expression ([15]; short-term and low-dose treatment): increasing
downregulated genes contained in the combination treatment group [16]: 365 genes
share of downregulated transcripts contained in the combination treatment group [16]: Approximately 91%
transcripts significantly down ([16]; 2 micromolar enzastaurin and/or 0.02 micromolar ibrutinib, p<0.05): 339 transcripts
tumour weight [17]: 1151.62 ± 163.79 mg
reduction of tumor volume [17]: weak activity
patients experiencing FFP 20˜50 months ([20]; 4/55 patients): 7%
patients with prolonged freedom from progression (FFP≥4 cycles) ([20]; 8/55 patients): 15%
disease-free survival (DFS) [21]: did not significantly improve
survival of DGM1-positive over DGM1-negative patients [22]: significantly improved survival

Structure (SMILES): C=CC(=O)N1CCC[C@@H](n2nc(-c3ccc(Oc4ccccc4)cc3)c3c(N)ncnc32)C1 [ibrutinib]
apoptosis as measured by annexin V staining ([11]; first-listed of two ibrutinib doses (FIG. 3a)): 15.9±6.0%
apoptosis as measured by annexin V staining ([11]; second-listed of two ibrutinib doses (FIG. 3a)): 19.0±6.7%
invasive abilities [13]: 85.0 % of control
migration abilities [14]: 70.2 % of control
phosphorylation of BTK and AKT [15]: reduced
phosphorylation of mTOR, PLCγ2, ERK and P38 ([15]; combination compared to each monotherapy alone): mild effect
tumour weight [17]: 1141.80 ± 235.57 mg
reduction of tumor volume [17]: weak activity
overall response rate (ORR) ([23]; patients with ABC-DLBCL (14/38)): 37%
overall response rate (ORR) ([23]; patients with GCB-DLBCL (1/20)): 5%
